Entries after “also recorded” stand apart in the source; their conditions may differ. Read-outs that look alike come from different tables or passages of the source.
How the values were obtained:
[1] = Plasma PK of capsules vs tablets in healthy human subjects, relative bioavailability; format: in vivo; conditions: capsules and tablets
Procedure: (§1) Blood samples were collected at the planned time points from each patient and centrifuged. The plasma portion of each sample was then transferred to a K2EDTA tube, which was then shipped to a bioanalytical lab for concentration measurement using LC-MS/MS. The concentration data were then analyzed using Phoenix® WinNonlin software to obtain PK parameters. The obtained PK parameters were further summarized using analytical software.
(§2) Blood samples (approximately 5 mL each) were collected from human patients pre-dose and at various hourly time points post-dose. Plasma concentrations of H3B-6545 were determined using a validated high-performance liquid chromatography/tandem mass spectrometry (LC-MS/MS) method. The lower limit of quantification was 0.100 ng/mL.
The PK Analysis Set included subjects who received H3B-6545 drug product in capsules or tablets and had sufficient evaluable plasma concentration data to derive at least 1 primary PK parameter in each treatment. […]
Pharmacokinetic parameters of H3B-6545 were calculated using noncompartmental methods, using an appropriate model for plasma data and extravascular administration. The PK parameters included, but were not limited to, area under the curve to the time of the last quantifiable concentration (AUC0-t), maximum concentration (Cmax), and time at which the maximum concentration occurred (tmax). […]

[2] = Plasma PK of 450 mg capsules in fasted and fed patients, dose expansion; format: in vivo, human; conditions: 450 mg QD capsules; for CLss/F / AUC(0-inf) / Cmax / half-life / AUC(0-t) / Vd / Vd/F: Geometric Mean (GeoCV %); for Tlag / Tmax: Median (Min, Max); for AUC0-24 (per 1 mg of API) / AUC0-inf (per 1 mg of API) / AUC0-t (per 1 mg of API) / Cmax (per 1 mg of API): normalized from Table 13; for AUC(0-inf) / Cmax / half-life / AUC(0-t) / Vd / Vd/F / Tmax: human, plasma, oral, 450 mg; for Vd: read-out: Vss; for Vd/F: read-out: Vz/F
Procedure: as §1, §2
The PK Analysis Set included subjects who received H3B-6545 drug product in capsules or tablets and had sufficient evaluable plasma concentration data to derive at least 1 primary PK parameter in each treatment. Plasma concentrations of H3B-6545 (as free base) were tabulated and summarized at each nominal time using descriptive statistics (number of subjects, arithmetic mean with standard deviation [SD], coefficient of variation [CV %], geometric mean, median, minimum, and maximum) as appropriate. Individual and mean (±SD) plasma concentration-time profiles were provided for each treatment.
Pharmacokinetic parameters of H3B-6545 were calculated using noncompartmental methods, using an appropriate model for plasma data and extravascular administration. The PK parameters included, but were not limited to, area under the curve to the time of the last quantifiable concentration (AUC0-t), maximum concentration (Cmax), and time at which the maximum concentration occurred (tmax). If data permitted, the area under the plasma concentration-time curve extrapolated to infinity (AUC0-inf), terminal elimination half-life (t1/2), apparent total body clearance (CL/F), total systemic clearance after oral administration at steady state (CLss/F), apparent volume of distribution during the terminal phase (Vz/F), apparent steady-state volume of distribution (Vss), accumulation ratio for Cmax (RCmax) and accumulation ratio of AUC0-24 (RAUC) were also derived.
Table 3 details PK parameters and profiles of human patients receiving capsules prepared as in Example 1. Patients received a total equivalent dosage of 450 mg of Formula I, as identified in Table 13. Table 14 has normalized the AUC0-t, AUC0-24, AUC0-inf and Cmax PK parameters illustrated in Table 13 to plasma PK parameters per 1 mg of active pharmaceutical ingredient (API).

[3] = tested on: ctDNA (ESR1, PIK3CA and AKT1 mutations); assay: ctDNA mutant allele frequency monitoring (BEAMing, ddPCR) in plasma; format: in vivo, human
Source text: Fresh plasma samples were collected at baseline (predose), cycle 1 day 15 (CID15), C2D1, C3D1 and every 8 weeks thereafter with a final sample collection at disease progression. At baseline, BEAMing digital PCR was used to evaluate hotspot mutations in ESR1, PIK3CA and AKT1. Patient specific ctDNA mutations were subsequently monitored by ddPCR. Baseline tumor biopsies were subjected to a targeted Next Generation Sequencing (NGS) panel to identify hotspot mutations.
• H3B-6545 administered once daily orally (PO QD) over a 28-day cycle • Dose escalation using a standard 3+3 study design using dose cohorts of 100, 200, 300, 450, and 600 mg/day
Liquid biopsy assays: 10 ml of Strek plasma was collected at the site and then processed into plasma at Sysmex Inostics. cfDNA was isolated from 2 ml of plasma for BEAMing and 3 ml for Biorad ddPCR

Ki67 = assay: Pharmacodynamics: Ki67 levels post-treatment; format: in vivo, human; conditions: across all dose levels post-treatment
Procedure: Methods were used to analyze whether H3B-6545 inactivates both wild-type and mutant ERα by targeting cysteine 530 and enforcing a unique antagonist conformation. Methods: Women with locally advanced or metastatic HR+BC are treated (tx) with H3B-6545 drug product administered once daily orally by capsule over a 28 day cycle after progression on at least one hormonal therapy and at least one additional therapy/regimen. Dose escalation uses a 3+3 design with the option to backfill previously cleared doses and allows for intrapatient dose escalation. This example explored the safety, pharmacokinetics and pharmacodynamics of H3B-6545 in women with HR+BC to identify a recommended subsequent dose for testing.

Question: For CN(C)C(=O)/C=C/CNCCOc1ccc(/C(=C(/CC(F)(F)F)c2ccccc2)c2ccc3[nH]nc(F)c3c2)cn1 [H3B-6545, (E)-N,N-dimethyl-4-[2-[5-[(Z)-4,4,4-trifluoro-1-(3-fluoro-1H-indazol-5-yl)-2-phenylbut-1-enyl]pyridin-2-yl]oxyethylamino]but-2-enamide], which tolerability [1] is on record?
Answer: The tolerability was “well-tolerated”.

Question: What about the CLss/F ([2]; Dose Expansion-Fasted) of the same compound?
Answer: The CLss/F was 36.7 (65.4); 18 L/h.

Question: And the Tlag ([2]; Dose Expansion-Fasted)?
Answer: The Tlag was 0 (0-0); 18 h.

Question: And the “AUC0-24 (per 1 mg of API)” value ([2]; Dose Expansion-Fasted)?
Answer: The value was 27.2 ng·h/mL/mg.

Question: What about the “AUC0-inf (per 1 mg of API)” value ([2]; Dose Expansion-Fasted) of the same compound?
Answer: Its value is 36.6 ng·h/mL/mg.

Question: And the “AUC0-t (per 1 mg of API)” value ([2]; Dose Expansion-Fasted)?
Answer: Its value is 27.7 ng·h/mL/mg.

Question: What about the “Cmax (per 1 mg of API)” value ([2]; Dose Expansion-Fasted) of the same compound?
Answer: The value was 2.4 ng/mL/mg.

Question: What about the CLss/F ([2]; Dose Expansion-Fed) of the same compound?
Answer: Its CLss/F is 20.5 (42.7); 13 L/h.

Question: And the Tlag ([2]; Dose Expansion-Fed)?
Answer: The Tlag was 0 (0-0); 17 h.

Question: What about the “AUC0-24 (per 1 mg of API)” value ([2]; Dose Expansion-Fed) of the same compound?
Answer: The value was 43.3 ng·h/mL/mg.

Question: What about the “AUC0-inf (per 1 mg of API)” value ([2]; Dose Expansion-Fed) of the same compound?
Answer: The value was 56.8 ng·h/mL/mg.

Question: What about the “AUC0-t (per 1 mg of API)” value ([2]; Dose Expansion-Fed) of the same compound?
Answer: Its value is 35.8 ng·h/mL/mg.

Question: What about the “Cmax (per 1 mg of API)” value ([2]; Dose Expansion-Fed) of the same compound?
Answer: The value was 3.5 ng/mL/mg.

Question: What about the AUC(0-inf) ([2]; Dose Expansion-Fasted) of the same compound?
Answer: The AUC(0-inf) was 16500 ng·h/mL.

Question: What about the Cmax ([2]; Dose Expansion-Fasted) of the same compound?
Answer: Its Cmax is 1090 ng/mL.

Question: What about the half-life ([2]; Dose Expansion-Fasted) of the same compound?
Answer: Its half-life is 10.9 h.

Question: And the AUC(0-t) ([2]; Dose Expansion-Fasted, read-out: AUC0-24)?
Answer: The AUC(0-t) was 12300 ng·h/mL.

Question: What about the AUC(0-t) ([2]; Dose Expansion-Fasted, read-out: AUC0-t) of the same compound?
Answer: The AUC(0-t) was 12500 ng·h/mL.

Question: And the Vd ([2]; Dose Expansion-Fasted)?
Answer: The Vd was 597 L.

Question: And the Vd/F ([2]; Dose Expansion-Fasted)?
Answer: Its Vd/F is 566 L.

Question: What about the Tmax ([2]; Dose Expansion-Fasted) of the same compound?
Answer: The Tmax was 4 h.

Question: And the AUC(0-inf) ([2]; Dose Expansion-Fed)?
Answer: Its AUC(0-inf) is 25500 ng·h/mL.

Question: What about the Cmax ([2]; Dose Expansion-Fed) of the same compound?
Answer: The Cmax was 1560 ng/mL.

Question: And the half-life ([2]; Dose Expansion-Fed)?
Answer: The half-life was 8.83 h.

Question: And the AUC(0-t) ([2]; Dose Expansion-Fed, read-out: AUC0-24)?
Answer: The AUC(0-t) was 19500 ng·h/mL.

Question: What about the AUC(0-t) ([2]; Dose Expansion-Fed, read-out: AUC0-t) of the same compound?
Answer: The AUC(0-t) was 16100 ng·h/mL.

Question: What about the Vd ([2]; Dose Expansion-Fed) of the same compound?
Answer: The Vd was 350 L.

Question: And the Vd/F ([2]; Dose Expansion-Fed)?
Answer: The Vd/F was 279 L.

Question: What about the Tmax ([2]; Dose Expansion-Fed) of the same compound?
Answer: Its Tmax is 6 h.

Question: And the “changes in mutant allele frequencies versus response” value ([3]; plasma)?
Answer: The value was “show correlation in response to treatment; also recorded: show correlation to clinical response”.

Question: And the “ctDNA levels by C2D1 in patients with confirmed partial response” value ([3]; serial ctDNA monitoring)?
Answer: The value was “undetectable”.

Question: And the “patients with confirmed partial responses whose ctDNA levels were undetectable by C2D1” value ([3]; serial ctDNA monitoring)?
Answer: Its value is 3/3.

Question: And the “patients with progressive disease whose ctDNA levels increased from baseline” value ([3]; serial ctDNA monitoring)?
Answer: Its value is 3/4.

Question: What about the “decrease in Ki67 levels” value (Ki67) of the same compound?
Answer: The value was 50%.

Source: patent US12702660B2, “Method for treating cancer with an oral dosage form of an estrogen receptor-alpha inhibitor” (Eisai R&D Management Co., Ltd., priority 2019, dated 2026)
